Reference: patent US6479478B1, “Carbapenem compounds” (Wyeth Lederle Japan, Ltd., priority 1998, dated 2002)
Values after ≈ are worked out from the molar mass of the structure shown.

How the values were obtained:
Assay in all cases: Antibacterial test, agar plate dilution method (MIC)
Assay type in all cases: cell-based
S. aureus Terajima = conditions: Staphylococcus aureus, MH agar, 37° C., 18 hours
Experimental: (§1) The antibacterial activities were tested by an agar plate dilution method in accordance with the standard method of The Japanese Chemotherapy Society [Chemotherapy, Vol.29, 76-79(1981)]. A Mulluer-Hinton (MH) agar liquid medium of a test microorganism was cultured overnight at 37° C. and the resultant culture medium was diluted with a buffered saline gelatin (BSG) solution to contain approximately 10^6 cells of the test microorganisms per milliliter, and then the diluted solution was inoculated with a micro-planter at the rate of approximately 5 μl on a MH agar medium containing a test compound. This medium was then incubated at 37° C. for 18 hours. The minimum inhibitory concentration (MIC) is determined as a minimum concentration in which no test microorganism could grow.
(§2) It is noted here that the test organisms used were all standard strains, and test compounds were Compound (8) and (15) obtained in Examples mentioned later.

S. typhimurium 11D971 = conditions: Salmonella enterica, MH agar, 37° C., 18 hours
Experimental: as §1, §2

S. paratyphi 1015 = conditions: Salmonella enterica, MH agar, 37° C., 18 hours
Experimental: as §1, §2

E. cloacae 963 = conditions: Enterobacter cloacae, MH agar, 37° C., 18 hours
Experimental: as §1, §2

E. coli NIHJ JC-2 = conditions: Escherichia coli, NIHJJC2, MH agar, 37° C., 18 hours
Experimental: as §1, §2

M. morganii IFO 3848 = conditions: Morganella morganii, IFO3848, MH agar, 37° C., 18 hours
Experimental: as §1, §2

P. aeruginosa PAO 1 = conditions: Pseudomonas aeruginosa, PAO1, MH agar, 37° C., 18 hours
Experimental: as §1, §2

P. vulgaris OX-19 = conditions: Proteus vulgaris, OX19, MH agar, 37° C., 18 hours
Experimental: as §1, §2

S. aureus FDA 209 JC-1 = conditions: Staphylococcus aureus, FDA209, MH agar, 37° C., 18 hours
Experimental: as §1, §2

P. aeruginosa IFO 3445 = conditions: Pseudomonas aeruginosa, IFO3445, MH agar, 37° C., 18 hours
Experimental: as §1, §2

K. pneumoniae PCI-602 = conditions: Klebsiella pneumoniae, PCI602, MH agar, 37° C., 18 hours
Experimental: as §1, §2

P. vulgalis HX-19 = conditions: MH agar, 37° C., 18 hours
Experimental: as §1, §2

P. mirabilis IFO 3849 = conditions: Proteus mirabilis, IFO3849, MH agar, 37° C., 18 hours
Experimental: as §1, §2

S. pyogenes Cook = conditions: Streptococcus pyogenes, MH agar, 37° C., 18 hours
Experimental: as §1, §2

E. coli K-12 C600 = conditions: Escherichia coli, K12C600, MH agar, 37° C., 18 hours
Experimental: as §1, §2

B. subtilis ATCC 6633 = conditions: Bacillus subtilis, ATCC6633, MH agar, 37° C., 18 hours
Experimental: as §1, §2

S. typhi 901 = conditions: Salmonella enterica, 18 h
Experimental: as §1, §2

E. aerogenes ATCC 13048 = conditions: Klebsiella aerogenes, ATCC13048, MH agar, 37° C., 18 hours
Experimental: as §1, §2

P. rettgeri IFO 3850 = conditions: Providencia rettgeri, IFO3850, MH agar, 37° C., 18 hours
Experimental: as §1, §2

S. schottmuelleri 8006 = conditions: MH agar, 37° C., 18 hours
Experimental: as §1, §2

S. enteritridis G14 = conditions: MH agar, 37° C., 18 hours
Experimental: as §1, §2

M. luteus ATCC 9341 = conditions: Micrococcus luteus, ATCC9341, MH agar, 37° C., 18 hours
Experimental: as §1, §2

S. aureus MS 353 = conditions: Staphylococcus aureus, MS353, MH agar, 37° C., 18 hours
Experimental: as §1, §2

P. aeruginosa NCTC 10490 = conditions: Pseudomonas aeruginosa, NCTC10490, MH agar, 37° C., 18 hours
Experimental: as §1, §2

Row | Compound | MIC (S. aureus Terajima) | MIC (S. typhimurium 11D971) | MIC (S. paratyphi 1015) | MIC (E. cloacae 963) | MIC (E. coli NIHJ JC-2) | MIC (M. morganii IFO 3848) | MIC (P. aeruginosa PAO 1) | MIC (P. vulgaris OX-19) | MIC (S. aureus FDA 209 JC-1) | MIC (P. aeruginosa IFO 3445) | MIC (K. pneumoniae PCI-602) | MIC (P. vulgalis HX-19) | MIC (P. mirabilis IFO 3849) | MIC (S. pyogenes Cook) | MIC (E. coli K-12 C600) | MIC (B. subtilis ATCC 6633) | MIC (S. typhi 901) | MIC (E. aerogenes ATCC 13048) | MIC (P. rettgeri IFO 3850) | MIC (S. schottmuelleri 8006) | also measured
1 | C[C@@H](O)[C@H]1C(=O)N2C(C(=O)O)=C(SC3CN(C4=NCCN4C)C3)[C@H](C)[C@H]12 [Compound (8), (1R,5S,6S)-2-[1-(1-methy-2-imidazolin-2-yl)azetidin-3-yl]-thio-6-[(R)-1-hydroxyethyl]-1-methylcarbapen-2-em-3-carbolic acid] | 0.013 µg/mL (≈ 0.0342 µM) | 0.05 µg/mL (≈ 0.131 µM) | 0.1 µg/mL (≈ 0.263 µM) | 0.1 µg/mL (≈ 0.263 µM) | 0.025 µg/mL (≈ 0.0657 µM) | 0.2 µg/mL (≈ 0.526 µM) | 12.5 µg/mL (≈ 32.9 µM) | 0.2 µg/mL (≈ 0.526 µM) | 0.025 µg/mL (≈ 0.0657 µM) | 3.13 µg/mL (≈ 8.23 µM) | 0.1 µg/mL (≈ 0.263 µM) | 0.39 µg/mL (≈ 1.03 µM) | 0.78 µg/mL (≈ 2.05 µM) | ≤ 0.006 µg/mL | 0.1 µg/mL (≈ 0.263 µM) | 0.025 µg/mL (≈ 0.0657 µM) | 0.025 µg/mL (≈ 0.0657 µM) | 0.1 µg/mL (≈ 0.263 µM) | 0.05 µg/mL (≈ 0.131 µM) | 0.1 µg/mL (≈ 0.263 µM) | MIC (S. enteritridis G14): 0.2 µg/mL (≈ 0.526 µM); MIC (M. luteus ATCC 9341): 0.025 µg/mL (≈ 0.0657 µM); MIC (S. aureus MS 353): 0.013 µg/mL (≈ 0.0342 µM); MIC (P. aeruginosa NCTC 10490): 12.5 µg/mL (≈ 32.9 µM)
2 | C[C@@H](O)[C@H]1C(=O)N2C(C(=O)O)=C(SC3CN(C4=NCCN4)C3)[C@H](C)[C@H]12 [Compound (15), (1R,5S,6S)-2-[1-(1,3-imidazolin-2-yl)azetidin-3-yl]thio-6-[(R)-1-hydroxyethyl]-1-methylcarbapen-2-em-3-carbolic acid] | ≤ 0.006 µg/mL | 0.05 µg/mL (≈ 0.136 µM) | 0.1 µg/mL (≈ 0.273 µM) | 0.05 µg/mL (≈ 0.136 µM) | 0.025 µg/mL (≈ 0.0682 µM) | 1.56 µg/mL (≈ 4.26 µM) | 3.13 µg/mL (≈ 8.54 µM) | 0.78 µg/mL (≈ 2.13 µM) | 0.025 µg/mL (≈ 0.0682 µM) | 1.56 µg/mL (≈ 4.26 µM) | 0.05 µg/mL (≈ 0.136 µM) | 0.78 µg/mL (≈ 2.13 µM) | 0.78 µg/mL (≈ 2.13 µM) | ≤ 0.006 µg/mL | 0.2 µg/mL (≈ 0.546 µM) | 0.025 µg/mL (≈ 0.0682 µM) | 0.025 µg/mL (≈ 0.0682 µM) | 0.1 µg/mL (≈ 0.273 µM) | 0.025 µg/mL (≈ 0.0682 µM) | 0.1 µg/mL (≈ 0.273 µM) | MIC (S. enteritridis G14): 1.56 µg/mL (≈ 4.26 µM); MIC (M. luteus ATCC 9341): 0.05 µg/mL (≈ 0.136 µM); MIC (S. aureus MS 353): 0.013 µg/mL (≈ 0.0355 µM); MIC (P. aeruginosa NCTC 10490): 1.56 µg/mL (≈ 4.26 µM)
